Activity calls are given as the source filed them. The rule behind the calls is not given here.
Columns and labels:
[1] = target: T1, Induced myeloid leukemia cell differentiation protein Mcl-1 (Homo sapiens, UniProt Q07820); assay: Displacement of FAM-Bid peptide from N-terminal 8x His-tagged MCl-1 (unknown origin) expressed in Escherichia coli BL21 (DE3) after 30 mins by fluorescence polarization assay
[2] = target: T2, Apoptosis regulator Bcl-2 (Homo sapiens, UniProt P10415); assay: Displacement of FAM-Bid peptide from N-terminal 8x His-tagged Bcl-2 (unknown origin) expressed in Escherichia coli BL21 (DE3) after 30 mins by fluorescence polarization assay
[3] = target: T3, E3 ubiquitin-protein ligase Mdm2 (Homo sapiens, UniProt Q00987); assay: Displacement of FAM-p53TAD peptide from N-terminal 8x His-tagged human MDM2 (25 to 108 residues) expressed in Escherichia coli BL21 (DE3) after 30 mins by fluorescence polarization assay
Target sequence in this assay (Q00987 whole entry, the tested form may be a part): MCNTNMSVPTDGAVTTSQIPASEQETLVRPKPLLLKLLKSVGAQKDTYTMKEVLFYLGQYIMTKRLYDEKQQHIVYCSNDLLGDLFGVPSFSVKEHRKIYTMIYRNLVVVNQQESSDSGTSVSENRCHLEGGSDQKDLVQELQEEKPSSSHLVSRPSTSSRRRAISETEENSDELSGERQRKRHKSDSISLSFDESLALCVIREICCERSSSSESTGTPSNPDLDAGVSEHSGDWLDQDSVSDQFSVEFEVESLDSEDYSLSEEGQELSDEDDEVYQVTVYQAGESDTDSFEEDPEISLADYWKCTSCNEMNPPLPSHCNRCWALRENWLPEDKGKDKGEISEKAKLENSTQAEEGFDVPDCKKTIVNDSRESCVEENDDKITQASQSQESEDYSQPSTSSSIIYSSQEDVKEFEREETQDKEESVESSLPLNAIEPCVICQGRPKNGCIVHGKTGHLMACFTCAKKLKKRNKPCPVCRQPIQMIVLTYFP

[4] = tested on: DMS-53; assay: Induction of apoptosis in human DMS53 cells harboring p53 mutant assessed as PARP cleavage at 5 to 10 uM after 12 hrs by immunoblotting method; assay type: functional, cell-based
[5] = target: T1, Induced myeloid leukemia cell differentiation protein Mcl-1; assay: Binding affinity to N-terminal 8x His-tagged MCl-1 (unknown origin) expressed in Escherichia coli BL21 (DE3) by isothermal titration microcalorimetric method
[6] = tested on: HCT-116; assay: Effect on p53 expression in human HCT116 p53-/- cells at 10 to 20 uM after 12 hrs by immunoblotting method; assay type: functional, cell-based
[7] = tested on: HCT-116; assay: Effect on p21 expression in human HCT116 p53-/- cells at 10 to 20 uM after 12 hrs by immunoblotting method; assay type: functional, cell-based
[8] = Cell cycle arrest in human HCT116 p53-/- cells assessed as accumulation at S phase at 10 uM after 24 hrs by propidium iodide staining-based flow cytometric method (reference value: 36%); assay type: functional; details: HCT-116
[9] = Cell cycle arrest in human HCT116 p53-/- cells assessed as accumulation at G1 phase at 10 uM after 24 hrs by propidium iodide staining-based flow cytometric method (reference value: 28%); assay type: functional; details: HCT-116
[10] = Cell cycle arrest in human HCT116 p53+/+ cells assessed as accumulation at G2/M phase at 5 uM after 24 hrs by propidium iodide staining-based flow cytometric method (reference value: 26%); assay type: functional; details: HCT-116
[11] = Cell cycle arrest in human HCT116 p53+/+ cells assessed as accumulation at G1 phase at 5 uM after 24 hrs by propidium iodide staining-based flow cytometric method (reference value: 31%); assay type: functional; details: HCT-116
[12] = Cell cycle arrest in human HCT116 p53-/- cells assessed as accumulation at <G1 phase at 10 uM after 24 hrs by propidium iodide staining-based flow cytometric method (reference value: 0.6%); assay type: functional; details: HCT-116
[13] = target: T3, E3 ubiquitin-protein ligase Mdm2; assay: Binding affinity to N-terminal 8x His-tagged human MDM2 (25 to 108 residues) expressed in Escherichia coli BL21 (DE3) by isothermal titration microcalorimetric method
Target sequence in this assay (Q00987 whole entry, the tested form may be a part): as above

[14] = target: T2, Apoptosis regulator Bcl-2; assay: Binding affinity to N-terminal 8x His-tagged Bcl-2 (unknown origin) expressed in Escherichia coli BL21 (DE3) by isothermal titration microcalorimetric method
[15] = tested on: DMS-53; assay: Induction of apoptosis in human DMS53 cells harboring p53 mutant assessed as cytochrome c release at 5 to 10 uM after 12 hrs by immunoblotting method; assay type: functional, cell-based
[16] = tested on: HCT-116; assay: Effect on MDM2 expression in human HCT116 p53-/- cells at 10 to 20 uM after 12 hrs by immunoblotting method; assay type: functional, cell-based
[17] = tested on: DMS-53; assay: Induction of apoptosis in human DMS53 cells harboring p53 mutant assessed as caspase-3 cleavage at 5 to 10 uM after 12 hrs by immunoblotting method; assay type: functional, cell-based
[18] = Cell cycle arrest in human HCT116 p53+/+ cells assessed as accumulation at S phase at 5 uM after 24 hrs by propidium iodide staining-based flow cytometric method (reference value: 42%); assay type: functional; details: HCT-116
[19] = Cell cycle arrest in human HCT116 p53-/- cells assessed as accumulation at G2/M phase at 10 uM after 24 hrs by propidium iodide staining-based flow cytometric method (reference value: […]%); assay type: functional; details: HCT-116
[20] = Cell cycle arrest in human HCT116 p53+/+ cells assessed as accumulation at <G1 phase at 5 uM after 24 hrs by propidium iodide staining-based flow cytometric method (reference value: 0.3%); assay type: functional; details: HCT-116
[21] = Upregulation of p53 mRNA expression in human HCT116 p53+/+ cells at 10 uM after 12 hrs by qPCR method; assay type: functional, cell-based; details: HCT-116
[22] = target: T2, Apoptosis regulator Bcl-2; assay: Inhibition of BCl-2/Bim interaction in human DMS53 cells harboring p53 mutant at 5 to 10 uM after 12 hrs by immunoprecipitation method; assay type: cell-based; details: DMS-53
[23] = target: T2, Apoptosis regulator Bcl-2; assay: Binding affinity to 15N-labeled Bcl-2 (unknown origin) by 2D 1H-15N HSQC NMR spectroscopic method
[24] = target: T1, Induced myeloid leukemia cell differentiation protein Mcl-1; assay: Inhibition of Mcl-1/Bax interaction in human DMS53 cells harboring p53 mutant at 5 to 10 uM after 12 hrs by immunoprecipitation method; assay type: cell-based; details: DMS-53
[25] = target: T1, Induced myeloid leukemia cell differentiation protein Mcl-1; assay: Inhibition of Mcl-1/Bim interaction in human DMS53 cells harboring p53 mutant at 5 to 10 uM after 12 hrs by immunoprecipitation method; assay type: cell-based; details: DMS-53
[26] = target: T2, Apoptosis regulator Bcl-2; assay: Inhibition of BCl-2/Bax interaction in human DMS53 cells harboring p53 mutant at 5 to 10 uM after 12 hrs by immunoprecipitation method; assay type: cell-based; details: DMS-53
[27] = target: T3, E3 ubiquitin-protein ligase Mdm2; assay: Inhibition of MDM2-p53 interaction in human HCT116 p53+/+ cells assessed as upregulation of MDM2 expression at 5 to 10 uM after 12 hrs by immunoblotting method; assay type: cell-based; details: HCT-116
Target sequence in this assay (Q00987 whole entry, looked up, the tested form may be a part): as the sequence (Q00987 whole entry, the tested form may be a part) above

[28] = tested on: HCT-116; assay: Induction of apoptosis in human HCT116 p53+/+ cells after 48 hrs by Annexin V-FITC staining-based flow cytometric method; assay type: functional, cell-based
[29] = target: T3, E3 ubiquitin-protein ligase Mdm2; assay: Inhibition of MDM2-p53 interaction in human HCT116 p53+/+ cells assessed as upregulation of p53 expression at 5 to 10 uM after 12 hrs by immunoblotting method; assay type: cell-based; details: HCT-116
Target sequence in this assay (Q00987 whole entry, looked up, the tested form may be a part): as the sequence (Q00987 whole entry, the tested form may be a part) above

[30] = target: T3, E3 ubiquitin-protein ligase Mdm2; assay: Inhibition of MDM2-p53 interaction in human HCT116 p53+/+ cells assessed as upregulation of p21 expression at 5 to 10 uM after 12 hrs by immunoblotting method; assay type: cell-based; details: HCT-116
Target sequence in this assay (Q00987 whole entry, looked up, the tested form may be a part): as the sequence (Q00987 whole entry, the tested form may be a part) above

T2 sequence (P10415 whole entry, the tested form may be a part): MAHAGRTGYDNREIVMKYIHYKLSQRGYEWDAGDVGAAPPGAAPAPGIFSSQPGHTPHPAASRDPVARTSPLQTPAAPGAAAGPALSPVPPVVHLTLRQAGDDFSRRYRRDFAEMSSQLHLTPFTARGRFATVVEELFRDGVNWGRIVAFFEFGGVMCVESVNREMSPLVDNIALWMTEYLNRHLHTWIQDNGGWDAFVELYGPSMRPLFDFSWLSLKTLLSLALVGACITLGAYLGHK
T1 sequence (Q07820 whole entry): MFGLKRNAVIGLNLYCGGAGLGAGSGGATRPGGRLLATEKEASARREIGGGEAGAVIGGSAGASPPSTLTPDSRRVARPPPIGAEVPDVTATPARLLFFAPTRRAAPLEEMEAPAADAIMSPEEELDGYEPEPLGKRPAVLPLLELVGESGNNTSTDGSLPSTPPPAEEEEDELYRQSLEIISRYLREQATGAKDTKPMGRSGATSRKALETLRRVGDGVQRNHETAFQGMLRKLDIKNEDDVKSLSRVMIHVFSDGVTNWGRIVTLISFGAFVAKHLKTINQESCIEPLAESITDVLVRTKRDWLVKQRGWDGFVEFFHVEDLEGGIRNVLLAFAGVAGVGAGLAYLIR

| Structure (SMILES) | Ki [1] [nM] | Ki [2] [nM] | Ki [3] [nM] | further results |
| --- | --- | --- | --- | --- |
| CCOc1ccc(-c2c(NC(=O)c3ccc(OC(C)C)cc3)c(C(=O)O)nn2-c2ccc(Oc3ccccc3)cc2)cc1 | 81 | 28 | 301 |  |
| CC(C)Oc1ccc(-c2cc(C(=O)O)nn2-c2ccc(Oc3ccccc3)cc2)cc1 | 371 | 932 | 712 |  |
| CCOc1ccc(-c2cc(C(=O)O)nn2-c2ccccc2)cc1 | 3800 | 6090 | 3260 |  |
| CCOc1ccc(-c2c(NC(=O)c3ccc(OCC(C)C)cc3)c(C(=O)O)nn2-c2ccc(Oc3ccccc3)cc2)cc1 | 393 | 1040 | 446 |  |
| O=C(O)c1cc(-c2ccc(OCc3ccccc3)cc2)n(-c2ccccc2)n1 | > 10000 | > 10000 | 19800 |  |
| CC(C)c1ccc2/c(=N\c3ccc(Oc4ccccc4)cc3)c3cc(O)c(O)c(O)c3n(C(=O)c3ccc(C(C)(C)C)cc3)c2c1 | 79 | 56 | > 25000 |  |
| CCOc1ccc(-c2c(NC(=O)c3ccccc3)c(C(=O)O)nn2-c2ccc(Oc3ccccc3)cc2)cc1 | 635 | 855 | 1130 |  |
| CC(C)Oc1ccc(-c2cc(C(=O)O)nn2-c2ccc(C(C)C)cc2)cc1 | 2390 | 5250 | 2140 |  |
| CC(C)COc1ccc(C(=O)Nc2c(C(=O)O)nn(-c3ccc(Oc4ccccc4)cc3)c2-c2ccc(OC(C)C)cc2)cc1 | 722 | 1400 | 422 |  |
| CC(C)Oc1ccc(C(=O)Nc2c(C(=O)O)nn(-c3ccc(Oc4ccccc4)cc3)c2-c2ccc(OC(C)C)cc2)cc1 | 161 | 140 | 107 | Activity [4]: Active; Kd [5]: 265 nM; Activity [6]: inactive; Activity [7]: inactive; Activity [8]: 33%; Activity [9]: 30%; Activity [10]: 47%; Activity [11]: 40%; Activity [12]: 5.2%; Kd [13]: 472 nM; Kd [14]: 290 nM; Activity [15]: Active; Activity [16]: inactive; Activity [17]: Active; Activity [18]: 6%; Activity [19]: 31%; Activity [20]: 6.8%; Activity [21]: inactive |
| CC(C)COc1ccc(-c2cc(C(=O)O)nn2-c2ccccc2)cc1 | 8110 | > 10000 | 7420 |  |
| COc1ccc(C2=N[C@@H](c3ccc(Cl)cc3)[C@@H](c3ccc(Cl)cc3)N2C(=O)N2CCNC(=O)C2)c(OC(C)C)c1 [NUTLIN-3] | > 10000 | > 10000 |  | inhibition [22]: inactive; Kd [23]: 15000 nM; Activity [8]: 35%; Activity [9]: 29%; Activity [10]: 49%; Activity [11]: 41%; Activity [12]: 0.8%; inhibition [24]: inactive; inhibition [25]: inactive; inhibition [26]: inactive; Activity [18]: 8%; Activity [19]: 34%; Activity [20]: 0.9% |
| COC(=O)c1nn(-c2ccc(Oc3ccccc3)cc2)c(-c2ccc(OC(C)C)cc2)c1NC(=O)c1ccc(OC(C)C)cc1 | 4520 | 5160 | 4280 |  |
| CC(C)Oc1ccc(C(=O)Nc2c(C(=O)O)nn(-c3ccc(C(C)C)cc3)c2-c2ccc(OCc3ccccc3)cc2)cc1 | 2600 | > 10000 | 2190 |  |
| CCOc1ccc(-c2cc(C(=O)O)nn2-c2ccc(Oc3ccccc3)cc2)cc1 | 451 | 694 | 1030 |  |
| Cc1cc2c(C(C)C)c(O)c(O)c(C=O)c2c(O)c1-c1c(C)cc2c(C(C)C)c(O)c(O)c(C=O)c2c1O [GOSSYPOL] | 260 |  | > 25000 |  |
| CC(C)Oc1ccc(-c2cc(C(=O)O)nn2-c2ccccc2)cc1 | 3620 | 7000 | 2290 |  |
| CCOc1ccc(-c2c(NC(=O)c3ccc(C(C)(C)C)cc3)c(C(=O)O)nn2-c2ccc(Oc3ccccc3)cc2)cc1 | 404 | 406 | 689 |  |
| O=C(O)c1cc(-c2ccccc2)n(-c2ccccc2)n1 | > 10000 | > 10000 | > 25000 |  |
| CC(C)c1ccc(-n2nc(C(=O)O)cc2-c2ccc(OCc3ccccc3)cc2)cc1 | 226 | 385 | 616 |  |
| CN(C)CC[C@H](CSc1ccccc1)Nc1ccc(S(=O)(=O)NC(=O)c2ccc(N3CCN(Cc4ccccc4-c4ccc(Cl)cc4)CC3)cc2)cc1[N+](=O)[O-] |  |  |  | Activity [4]: Active; inhibition [22]: Active; inhibition [27]: inactive; Activity [8]: 32%; Activity [9]: 26%; Activity [10]: 24%; Activity [28]: Active; Activity [11]: 28%; Activity [12]: 6.4%; inhibition [29]: inactive; Activity [15]: Active; Activity [17]: Active; inhibition [26]: Active; Activity [18]: 40%; Activity [19]: 34%; Activity [20]: 7.1%; inhibition [30]: inactive |
| CC(C)Oc1ccc(C(=O)Nc2c(C(=O)O)nn(-c3ccc(Oc4ccccc4)cc3)c2-c2ccc(OCc3ccccc3)cc2)cc1 | > 10000 | > 10000 | 4470 |  |
| Cc1ccc(/N=c2\c3ccc(C)cc3n(C(=O)c3ccc(C(C)(C)C)cc3)c3c(O)c(O)c(O)cc23)cc1 | 247 | 207 | 24300 |  |

Source: ChEMBL document CHEMBL3797039, “Bcl-2/MDM2 Dual Inhibitors Based on Universal Pyramid-Like α-Helical Mimetics” (J Med Chem, 2016)
